Series [1] can be described thus: loose bulk density measurement of nicotinamide mononucleotide crystals (sieve, weigh, graduated cylinder). Type of series: physicochemical. The protocol:
Bulk densities mentioned below are all loose bulk densities, and specific values are measured by the following method: taking an object to be tested, sieving the object (1.00 mm No. 18), accurately weighing the object, slowly pouring the object into a glass graduated cylinder, scraping the top, recording an apparent volume, and calculating the bulk density; and taking 3 same samples for parallel measurement, recording the readings, and using an average value as a measurement result.

For series [2] the following is noted: prior-art crystals (CN108697722A; CN11269505A embodiment data); cited from earlier work.
The conditions of series [3]: CN11269505A embodiment data; cited from earlier work.
[4] abbreviates: loose bulk density, average of 3 parallel samples.

Where two headings read alike, the source gives them in different places.

`NC(=O)c1ccc[n+]([C@@H]2O[C@H](COP(=O)([O-])O)[C@@H](O)[C@H]2O)c1` [Comparative Example 1, nicotinamide mononucleotide] registered a Bulk density in series [1] (setting [4]) of 0.23 g/mL.

In turn, `NC(=O)c1ccc[n+]([C@@H]2O[C@H](COP(=O)([O-])O)[C@@H](O)[C@H]2O)c1` [Comparative Example 2, nicotinamide mononucleotide] had a Bulk density in series [1] (setting [4]) of 0.20 g/mL.

As to `NC(=O)c1ccc[n+]([C@@H]2O[C@H](COP(=O)([O-])O)[C@@H](O)[C@H]2O)c1` [Comparative Example 3, nicotinamide mononucleotide], the Bulk density in series [1] (setting [4]) is 0.40 g/mL.

The compound `NC(=O)c1ccc[n+]([C@@H]2O[C@H](COP(=O)([O-])O)[C@@H](O)[C@H]2O)c1` [Comparative Example 4, nicotinamide mononucleotide] gave a Bulk density in series [1] (setting [4]) of 0.56 g/mL.

As to `NC(=O)c1ccc[n+]([C@@H]2O[C@H](COP(=O)([O-])O)[C@@H](O)[C@H]2O)c1` [Example 1, nicotinamide mononucleotide], the Bulk density in series [1] (water content of semi-solid 1%, pH 3.5, ethanol, cooling 10° C./h to 10° C.) was 1.05 g/mL; in series [1] (water content of semi-solid 5%, pH 3.5, ethanol, cooling 10° C./h to 10° C.) it was 1.03 g/mL; in series [1] (water content of semi-solid 10%, pH 3.5, ethanol, cooling 10° C./h to 10° C.) it was 0.89 g/mL; in series [1] (water content of semi-solid 15%, pH 3.5, ethanol, cooling 10° C./h to 10° C.), 0.77 g/mL; in series [1] (water content of semi-solid 20%, pH 3.5, ethanol, cooling 10° C./h to 10° C.), 0.67 g/mL; in series [1] (water content of semi-solid 25%, pH 3.5, ethanol, cooling 10° C./h to 10° C.) it was 0.56 g/mL. Further, the Bulk density in series [1] (water content of semi-solid 35%, pH 3.5, ethanol, cooling 10° C./h to 10° C.) came to 0.44 g/mL; in series [1] (water content of semi-solid 50%, pH 3.5, ethanol, cooling 10° C./h to 10° C.) it was 0.33 g/mL; in series [1] (water content of semi-solid 75%, pH 3.5, ethanol, cooling 10° C./h to 10° C.) it was 0.26 g/mL.

With `NC(=O)c1ccc[n+]([C@@H]2O[C@H](COP(=O)([O-])O)[C@@H](O)[C@H]2O)c1` [Example 2, nicotinamide mononucleotide], the Bulk density was determined as 0.93 g/mL in series [1] (cooling rate 1, crystallization end temperature 10, water content 10%, pH 3.5); 0.88 g/mL in series [1] (cooling rate 1, crystallization end temperature 18, water content 10%, pH 3.5); 0.93 g/mL in series [1] (cooling rate 3, crystallization end temperature 10, water content 10%, pH 3.5); 0.92 g/mL in series [1] (cooling rate 5, crystallization end temperature 5, water content 10%, pH 3.5); 0.92 g/mL in series [1] (cooling rate 5, crystallization end temperature 10, water content 10%, pH 3.5); 0.88 g/mL in series [1] (cooling rate 5, crystallization end temperature 18, water content 10%, pH 3.5). In addition, the Bulk density was 0.88 g/mL in series [1] (cooling rate 10, crystallization end temperature 5, water content 10%, pH 3.5); 0.89 g/mL in series [1] (cooling rate 10, crystallization end temperature 10, water content 10%, pH 3.5); 0.84 g/mL in series [1] (cooling rate 10, crystallization end temperature 18, water content 10%, pH 3.5); 0.84 g/mL in series [1] (cooling rate 15, crystallization end temperature 8, water content 10%, pH 3.5); 0.84 g/mL in series [1] (cooling rate 15, crystallization end temperature 10, water content 10%, pH 3.5); 0.82 g/mL in series [1] (cooling rate 15, crystallization end temperature 18, water content 10%, pH 3.5). Further, the Bulk density in series [1] (cooling rate 15, crystallization end temperature 25, water content 10%, pH 3.5) turned out to be 0.34 g/mL; in series [1] (cooling rate 20, crystallization end temperature 10, water content 10%, pH 3.5), 0.35 g/mL.

Turning to `NC(=O)c1ccc[n+]([C@@H]2O[C@H](COP(=O)([O-])O)[C@@H](O)[C@H]2O)c1` [Example 3, nicotinamide mononucleotide], the Bulk density is 0.89 g/mL in series [1] (pH value of aqueous solution of NMN 3.5, water content 10%, cooling 10° C./h to 10° C.); 1.08 g/mL in series [1] (pH value of aqueous solution of NMN 4.5, water content 10%, cooling 10° C./h to 10° C.); 1.09 g/mL in series [1] (pH value of aqueous solution of NMN 5.0, water content 10%, cooling 10° C./h to 10° C.); 1.09 g/mL in series [1] (pH value of aqueous solution of NMN 5.5, water content 10%, cooling 10° C./h to 10° C.); 1.07 g/mL in series [1] (pH value of aqueous solution of NMN 6.0, water content 10%, cooling 10° C./h to 10° C.); 1.08 g/mL in series [1] (pH value of aqueous solution of NMN 6.5, water content 10%, cooling 10° C./h to 10° C.). This compound also displayed a Bulk density in series [1] (pH value of aqueous solution of NMN 7.0, water content 10%, cooling 10° C./h to 10° C.) of 0.81 g/mL.

As to `NC(=O)c1ccc[n+]([C@@H]2O[C@H](COP(=O)([O-])O)[C@@H](O)[C@H]2O)c1` [Example 4, nicotinamide mononucleotide], the Bulk density in series [1] (setting [4]) was found to be 1.02 g/mL.

In the case of `NC(=O)c1ccc[n+]([C@@H]2O[C@H](COP(=O)([O-])O)[C@@H](O)[C@H]2O)c1` [Example 5, nicotinamide mononucleotide], the Bulk density in series [1] (setting [4]) worked out at 1.17 g/mL.

In the case of `NC(=O)c1ccc[n+]([C@@H]2O[C@H](COP(=O)([O-])O)[C@@H](O)[C@H]2O)c1` [Example 6, nicotinamide mononucleotide], the Bulk density in series [1] (setting [4]) is 1.21 g/mL.

`NC(=O)c1ccc[n+]([C@@H]2O[C@H](COP(=O)([O-])O)[C@@H](O)[C@H]2O)c1` [Example 7, nicotinamide mononucleotide] showed a Bulk density in series [1] (setting [4]) of 0.95 g/mL.

`NC(=O)c1ccc[n+]([C@@H]2O[C@H](COP(=O)([O-])O)[C@@H](O)[C@H]2O)c1` [Example 8, nicotinamide mononucleotide] returned a Bulk density in series [1] (setting [4]) of 1.24 g/mL.

For the compound `NC(=O)c1ccc[n+]([C@@H]2O[C@H](COP(=O)([O-])O)[C@@H](O)[C@H]2O)c1` [form 1, β-nicotinamide mononucleotide, reference compound], the Bulk density in series [1] (loose bulk density, average of 3 parallel samples, listed as nicotinamide mononucleotide anhydrous crystal) was 0.20 g/mL; in series [2], “about 0.2 g/ml”.

Regarding `NC(=O)c1ccc[n+]([C@@H]2O[C@H](COP(=O)([O-])O)[C@@H](O)[C@H]2O)c1` [form 2, β-nicotinamide mononucleotide], the Bulk density entry in series [2] was “about 0.2 g/ml”.

Turning to `NC(=O)c1ccc[n+]([C@@H]2O[C@H](COP(=O)([O-])O)[C@@H](O)[C@H]2O)c1` [high-density NMN, nicotinamide mononucleotide], the Bulk density in series [2] is 0.52 g/mL. Further, in series [3], the tap density was 0.71 g/mL.

(Values after patent US12570682B2, “Method for increasing bulk density of nicotinamide mononucleotide crystal and crystal thereof” (BONTAC BIO-ENGINEERING (SHENZHEN) CO., LTD, priority 2021, dated 2026).)
